{"source": "patent US8642510B2", "about": "“Inhibitors for brassinosteroid signalling” (GMI-Gregor Mendel-Institut fuer Molekulare Pflanzenbiologie …, priority 2008, dated 2014)", "key": {"[1]": {"experiment": "HPLC-analysis of plant extracts (fate of compound in planta)", "assay_type": "in vivo, A. thaliana", "details": "seedlings infiltrated, HPLC of extracts after 15 min", "procedure": "FIG. 5: Estrified compounds are rapidly hydrolysed in planta. A. thaliana seedlings were infiltrated with ½MS medium containing 50 μM compound 10. Control samples were taken before infiltration (A) and analysed by HPLC. A biotransformation product (marked P) of compound 10 could be observed after 15 min (B). A chromatogram of a mixture of compounds 10, 15, and 17 (labelled with C10, C15 and C17, respectively) is shown for comparison (C). The small boxes inserted into the chromatograms show the UV spectra of the peaks in the range of 220 to 360 nm. mAU, milli absorption units recorded at 250 nm.\nTwo-week-old A. thaliana Co10 seedlings were vacuum infiltrated with ½MS or ½MS containing […] compound 10 as described previously (Rozhon et al., 2005). After 15 min and after 48 h samples were taken, rinsed with water and ground in liquid nitrogen to a fine powder. 100 mg powder were weighed into a reaction tube and 1 ml extraction buffer (20 mM TRIS/HCl pH6.8 dissolved in 20% acetonitrile) was added. […] The extracts were analysed by HPLC with the same settings as mentioned above.\nTo investigate these conflicting results, the fate of compound 10 in vivo was investigated. Seedlings were infiltrated with compound 10 and plant extracts subsequently analysed by HPLC. […]"}, "[2]": {"experiment": "Cell-permeability assay (uptake by seedlings)", "assay_type": "in vivo, A. thaliana", "details": "50 μM in medium", "procedure": "FIG. 6: Methylation increases tissue-permeability. A. thaliana seedlings were incubated in 50 μM solutions of compounds 10 and 15 in ½MS medium. Samples were taken after the indicated time and the in situ levels of compound 15 analysed by HPLC. The solid line represents the results for plants incubated with compound 10 and the dashed line the results for compound 15. The means and standard deviations were calculated from 3 independent assays.\nTwo-week-old A. thaliana Co10 seedlings were transferred to ½MS medium containing 50 μM inhibitor. Samples were removed after the indicated time points, rinsed with water, dried with filter paper and frozen in liquid nitrogen. For analysis the plant material was ground to a fine powder in a mortar pre-cooled with liquid nitrogen. […]\nThe cell-permeability of a substance is an important characteristic influencing its in vivo potency. The uptake of compounds 10 and 15 by plants was determined by treatment of seedlings with solutions of these compounds and subsequent quantification of the internalised inhibitor concentrations (FIG. 6). Since compound 10 is rapidly converted to 15, only the in situ concentration of 15 was measured. […] While 50 μM were present in the medium, in situ concentrations of about 90 μM could be measured in the case of compound 15 and up to 190 μM in the case of application of compound 10."}, "[3]": {"tested_on": "ASKs (A. thaliana GSK-3/Shaggy-like kinases)", "experiment": "In vitro kinase assay, GST-ASK fusion proteins with MBP and γ-[32P]-ATP", "assay_type": "biochemical, Arabidopsis thaliana", "details": "compounds at 10 μM; result in words", "procedure": "GST-ASK fusion proteins were incubated with MBP as substrate and γ-[32P]-ATP as co-substrate in the absence (−) or presence of different derivatives (the numbers correspond to Table 1). […] The compounds were used at a concentration of 10 μM. The proteins were separated by SDS-PAGE and the incorporated radioactive phosphate detected with a storage phosphor imager screen.\nASKs were expressed as GST-fusion proteins in E. coli BL21. In vitro kinase assays were performed by incubating 50 ng GST-fusion protein, 10 μg myelin basic protein (MBP; Sigma, St Louis, Mo.) as substrate and 0.15 MBq γ-[32P]-ATP as co-substrate at 25° C. for 30 min. The reaction buffer consisted of 20 mM HEPES pH7.4, 15 mM MgCl2, 5 mM EGTA and 1 mM DTT. For initial experiments cold ATP was included at concentrations up to 3 μM. The reaction products were separated by SDS-PAGE and the amount of radioactivity incorporated into MBP quantified using an Amersham storage phosphor imager screen and a Biorad Molecular Imager FX. In vivo kinase activity was detected by phosphorylation band-shift assays using BZR1-CFP as substrate.\nRepresentatives of all groups were expressed as recombinant GST fusion proteins in E. coli."}, "[4]": {"experiment": "Determination of pKa values", "details": "pH5.8, the pH of the medium", "method": "Fifty to 100 mg compound were weighed and dissolved in 50 ml 50% (v/v) methanol. A titration curve with 50 mM NaOH as standard solution was recorded with a Greisinger electonics GPHR 1400A pH meter. The equivalence point was determined by the difference quotient method (ΔpH/ΔVNaOH) and the pKa read from the titration curve at 50% neutralisation."}, "cpd mutant seedlings": {"tested_on": "cpd mutant seedlings", "experiment": "Physiological test, phenotype rescue of brassinosteroid synthesis mutant cpd", "assay_type": "in vivo, Arabidopsis thaliana", "details": "30 μM in medium, 7 days", "procedure": "FIG. 3: Effects on the phenotype of brassinosteroid mutants. 7-day-old seedlings of the brassinosteroid synthesis mutant cpd and signalling mutant bri1-1 were transferred to MS medium containing 1 μM epi-brassinolide (Epi-BL) or compounds 10 and 15 at a concentration of 30 μM and incubated for 7 days under long day conditions. All pictures were taken at the same magnification. The bar represents 1 mm.\nArabidopsis thaliana Co10 or bri1-1 seedlings were grown in vitro on ½ MS plates containing 1% sucrose in a growth camber under long day conditions (16 h light with 50 μE·m^−2·s^−1, 8 h dark) for 7 days. Subsequently, they were transferred to plates supplemented with inhibitors at different concentrations and effects on the phenotype were observed 7 days later.\nDownregulation of ASK activity is crucial in brassinosteroid signalling. ASKs are constitutively active in cpd and bril-1 mutants, which are defective in brassinosteroid biosynthesis or signalling, respectively. This leads to severely dwarfed plants with dark green downward curled leaves and shortened hypocotyls. […] To screen for in vivo potency, cpd and bril-1 mutants were transferred to media containing 4-[(5-bromo-2-pyridinyl)amino]-4-oxobutanoic acid derivatives at a concentration of 30 μM. […] The potency to rescue the phenotype correlated with the results of the in vitro assay."}}, "note": "Entries after “also recorded” stand apart in the source; their conditions may differ."}
{"smiles": "COC(=O)CCC(=O)Nc1ccc(I)cn1", "note": "[Compound 10, 4-[(5-iodopyrid-2-yl)amino]-4-oxobutanoic acid methyl ester]", "values": [{"measurement": "Stability in planta (hydrolysis of methyl ester to free acid)", "setting": "[1]", "value": "not stable in vivo but rapidly converted; also recorded: rapidly cleaved off"}, {"measurement": "Uptake rate relative to compound 15", "setting": "[2]", "value": "roughly double"}, {"measurement": "Tissue permeability / uptake", "setting": "[2]; result in words", "value": "higher tissue permeability; also recorded: very rapid uptake"}, {"measurement": "Inhibition of ASKs in vitro (MBP phosphorylation)", "setting": "[3]", "value": "dramatically reduced inhibitory effects; also recorded: little potency in vitro; also recorded: little or no activity"}, {"measurement": "Portion undissociated / lipophilic, capable of diffusion through the membrane", "setting": "[4]", "value": 100, "unit": "%"}, {"measurement": "Rescue of cpd mutant phenotype", "setting": "cpd mutant seedlings", "value": "highly active in vivo"}]}
